Laboratory results: paper PMC9764287, “Multivalent Fucosides Targeting β-Propeller Lectins from Lung Pathogens with Promising Anti-Adhesive Properties” (ACS Chemical Biology, 2022)
“And” between values parts separate entries of the source, which are not always exact repeats. Equal entries are not always repeated. Where two headings read alike, the source gives them in different places.

What was measured:
[1] = target: T1, BambL (Burkholderia ambifaria, UniProt Q0B4G1); assay: Isothermal titration calorimetry (ITC); type: binding; settings: for Kd: 20 mM Tris, 100 mM NaCl, pH 8.0; for -TΔS (kJ/mol) BambL binding / ΔH (kJ/mol) BambL binding / N BambL binding (Table S3): Table S3, ITC 25 °C; for N BambL binding (Table S3): as printed in SI, one third of the per-trimer N of Table 2
T1 sequence (Q0B4G1 1-87): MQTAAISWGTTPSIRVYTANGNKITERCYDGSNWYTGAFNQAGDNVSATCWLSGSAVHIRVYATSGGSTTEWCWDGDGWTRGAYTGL
Text: (§1) Due to the time-consuming measurements and the high quantity of protein necessary in some techniques, we selected only the four inhibitors with the largest size (compounds with PEGn=4 and hPG-20) for further biophysical analysis. More in-depth studies were continued by isothermal titration calorimetry (ITC) and bio-layer interferometry (BLI), which confirmed the trends previously seen by FP (Table 2). In the ITC experiments, the fungal lectins bound their monovalent reference with a stoichiometry (N) value around […], which is consistent with the number of high-affinity binding sites per monomer. With the value close to […] obtained for BambL, the reference experiments are indicative of active recombinant proteins and correlate well with previous findings in the literature.[39],[41] […] This calls for a likely mixed chelate-aggregative binding, whose precise architecture cannot be determined based solely on the compound/protein ratio.
(§2) 1.2 I sotherm al ti trati on c al ori m etry
(§3) Protein targets were pl ace d i n t he sample cell at concentrations ranging between 50 an d 8.5 μM at 25 °C. […]
Ta b le S3. Microcalorimetry data relative to B am bL binding.

[2] = target: T2, FleA (Aspergillus fumigatus, UniProt Q4WW81); assay: Isothermal titration calorimetry (ITC); type: binding; settings: for Kd: 20 mM Tris, 100 mM NaCl, pH 8.0; for N stoichiometry FleA ITC: ratio of compound per FleA monomer (six binding sites); for -TΔS (kJ/mol) FleA binding / ΔH (kJ/mol) FleA binding: Table S1, ITC 25 °C
T2 construct: 6xHis (TEV-cleavable) (N, cleaved yes); made in house
T2 sequence (Q4WW81 whole entry): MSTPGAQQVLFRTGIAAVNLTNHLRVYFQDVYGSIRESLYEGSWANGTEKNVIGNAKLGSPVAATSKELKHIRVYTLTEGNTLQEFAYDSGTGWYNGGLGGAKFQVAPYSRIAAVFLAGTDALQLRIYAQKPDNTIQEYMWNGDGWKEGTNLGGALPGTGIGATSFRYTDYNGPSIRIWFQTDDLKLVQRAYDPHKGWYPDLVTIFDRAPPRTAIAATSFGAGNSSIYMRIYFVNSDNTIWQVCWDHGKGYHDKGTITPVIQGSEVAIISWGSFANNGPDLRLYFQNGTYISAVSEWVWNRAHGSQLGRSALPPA
Text: as §1, §2, §3
Ta b le S1. Microcalorimetry data relative to Fl e A binding.

[3] = target: T2, FleA; design: method as in PMID 25760594; settings: SPR experiment; read-out: Kd of binding for FleA; cited from earlier work
[4] = target: T3, SapL1 (Scedosporium apiospermum, UniProt A0A084FYP2); assay: Competitive fluorescence polarization (FP) assay; type: binding; settings: read-out: IC50 (nM) ± SD SapL1, Fuc-FITC probe 6 nM, protein 100 nM, average over two independent experiments
T3 sequence (A0A084FYP2 entry or part of it): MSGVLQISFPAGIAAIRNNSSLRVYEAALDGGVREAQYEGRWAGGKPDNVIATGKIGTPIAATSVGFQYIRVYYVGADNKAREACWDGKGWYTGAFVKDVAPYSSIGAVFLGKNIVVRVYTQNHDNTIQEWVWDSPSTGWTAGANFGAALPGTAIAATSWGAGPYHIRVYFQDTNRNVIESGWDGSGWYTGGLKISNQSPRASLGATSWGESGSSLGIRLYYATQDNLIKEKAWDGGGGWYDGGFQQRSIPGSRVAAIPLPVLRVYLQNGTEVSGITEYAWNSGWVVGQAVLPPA
Text: (§4) With the targeted lectins in hand, we could screen the inhibitory properties of the synthesized compounds by a competitive binding assay based on fluorescence polarization (FP). […] In general, results confirmed the power of multivalency as IC50 values improved from the micromolar range for the monosaccharide reference to the nanomolar range for the multivalent counterparts (Table 1).
(§5) 1.1 F l uoresc en c e pol ari z ati on c om peti ti ve assay
(§6) The fluorescen t ligan d Fu c -FI TC (F i g ur e S 1 ) w as pr e par e d f r om com poun d 2a followin g a protocol reported in literature.1 T y pi cal l y , a s t ock s ol uti on of pr ote i n (f i n al con ce n tr ati on 100 n M) an d Fu c -FI TC (final concentration 6 n M) w e r e adde d to 3 -f ol d serial dilution s of testin g compoun ds in dupl i cat e s on a bl ack 9 6 well microtiter plate (CO S T A R TM 96) . […] The starting concentration for the monovalent com poun d w as 3 mM an d 5 -fold dilution s were used in this case. All compon en ts were dissolved in the same buffer (20 mM Tris, 100 mM N aCl , pH 8.0). After addition of the reagents, the microtiter plates were s hak e d f or 1 h at room temperature i n t he dar k . […] A fluorescen ce in ten sity spectral scan of the multivalent compounds alone was also performed to confirm no interference with the analysis. […] The point of inflection was used to determine the IC50 value of each experiment. […]
(§7) Fi gu re S1 . The structure of the fluorescent probe Fu c -FI TC.

[5] = target: T2, FleA; assay: Competitive fluorescence polarization (FP) assay; type: binding; settings: Fuc-FITC probe 6 nM, protein 100 nM, average over two independent experiments, read-out: IC50 (nM) ± SD FleA
Text: as §4, §5, §6, §7

[6] = target: T1, BambL; assay: Competitive fluorescence polarization (FP) assay; type: binding; settings: Fuc-FITC probe 6 nM, protein 100 nM, average over two independent experiments, read-out: IC50 (nM) ± SD BambL
Text: as §4, §5, §6, §7

[7] = target: T3, SapL1; assay: Isothermal titration calorimetry (ITC); type: binding; settings: for N stoichiometry SapL1 ITC: ratio of compound per SapL1 monomer (six binding sites); for -TΔS (kJ/mol) SapL1 binding / ΔH (kJ/mol) SapL1 binding: Table S2, ITC 25 °C
Text: as §1, §2, §3
Ta b le S2. Microcalorimetry data relative to S apL1 binding. […]

[8] = target: T3, SapL1; assay: Bio-layer interferometry (BLI), biotinylated lectin on streptavidin sensor; type: binding; settings: read-out: Kobs (nM) SapL1 BLI; 25 °C; protein immobilized
Text: (§8) Applying different techniques to study the mechanism of multivalent binding is always advisable to better understand the process at a molecular level.[44] BLI is a biophysical technique where the target protein can be immobilized on the surface of the sensor, so problems related to aggregation should be eliminated. This technology has in fact been applied to the study of lectin-multivalent glycoconjugate interactions in a reliable, low-cost, and fast way.[45] […] A discrepancy of this nature is not too surprising considering that in the BLI experiment, one of the binding partners is immobilized, so its Kd’s might be better labeled as Kobs. Different techniques measure inherently different properties. It has been pointed out in a recent publication that drastically different outcomes can be obtained from solution to surface experimental approaches and that these variations are highly dependent on the accessibility of the binding motif.[46] The arrangement of glycans and the linker used for immobilization have shown to influence affinity on the glycan array setting. Therefore, it is likely that also the arrangement of a protein on the surface can have a similar effect when the setting is reversed.[46],[47] The difference in affinities between ITC and BLI for the fungal versus the bacterial lectins may relate to their orientation on the surface. The proteins were immobilized to the surface of a streptavidin-coated sensor through biotinylation of their lysine residues. BambL has only one lysine per monomer, opposite to the binding surface, while FleA and SapL1 have several, some of which close to the binding sites. It is plausible that this would influence the binding of the lectins to the sensor and the exposure of their sites. […] In contrast, all binding sites and modalities are accessible in solution during ITC.
(§9) 1.4 B i ol ayer i n terferom etry
(§10) The mixture was incubate d for 30 minutes with stirring. […] Biotinylated protein at 100nM concentrations were loaded on the sensor. […]

[9] = target: T2, FleA; assay: as above; type: binding; settings: 25 °C; protein immobilized; read-out: Kobs (nM) FleA BLI
Text: as §8, §9, §10

[10] = target: T1, BambL; assay: as above; type: binding; settings: read-out: Kobs (nM) BambL BLI; 25 °C; protein immobilized
Text: as §8, §9, §10

[11] = target: FleA, SapL1, and BambL; design: method as in PMID 24340081, PMID 34373510, PMID 22170069; settings: range over FleA, read-out: Kd of α-methyl fucose; cited from earlier work
[12] = tested on: adhesion of Af293.1 spores to A549 cells; assay: Adhesion assay of A. fumigatus conidia to lung epithelial cells; type: cell-based, Aspergillus fumigatus
Experimental: In our adhesion assay, A549 cells were cultured in a well-plate until a confluent layer was obtained and then challenged with A. fumigatus conidia in the presence or absence of FleA inhibitors. After incubation and washing to remove unbound spores from the cell layer, imaging was performed by confocal microscopy (Figure 4). The detection of fungi was facilitated by the availability of Af293.1, a strain originally derived from a clinical isolate and genetically modified to constitutively express red fluorescent protein.[53] Cell nuclei were stained with Hoechst fluorescent dye for visualization.[54] Cell and spore counts were calculated by ImageJ software and used to express adhesion efficiencies.
Figure 5 Adhesion of Af293.1 to A459. The black bars refer to the conditions where compounds and spores were pre-incubated 1 h prior infection. The white-striped bars refer to the conditions where compounds were added 1 h after infection. *Significant difference to the control (chi-square test, followed by Bonferroni’s multiple comparison test).
[…] Unbound conidia were removed carefully by washin g 4 times with m e di a (D ME M + 10% F BS). […] Fluorescence emission of Hoechst was de te cte d us i n g the 400- 600 nm spectral band and red fluorescence emission of R F P was detected with the 560- 700 n m s pe ctr al ban d. […]

## C[C@@H]1O[C@@H](OCCN=[N+]=[N-])[C@@H](O)[C@H](O)[C@@H]1O [2a]
[1]; 25 °C
  Kd: 2140 ± 80 nM
[1]
  -TΔS (kJ/mol) BambL binding: 17 ± 1 kJ/mol
  ΔH (kJ/mol) BambL binding: -50 ± 1 kJ/mol
  N BambL binding (Table S3): 1.81 ± 0.01
[2]; 25 °C
  Kd: 97600 ± 300 nM
  N stoichiometry FleA ITC: 4.1 ± 0.02
[2]
  -TΔS (kJ/mol) FleA binding: 16 ± 4 kJ/mol
  ΔH (kJ/mol) FleA binding: -39 ± 4 kJ/mol

## C[C@@H]1OC(O)[C@@H](O)[C@H](O)[C@@H]1O (stereo partly drawn) [L-Fuc]
[3]
  Kd: 209000 nM

## C[C@@H]1O[C@@H](OCCNC(=O)CCOCCOCCOCCOCCNC(=O)Cc2ccc(SCc3c(CSc4ccc(CC(=O)NCCOCCOCCOCCOCCC(=O)NCCO[C@@H]5O[C@@H](C)[C@@H](O)[C@@H](O)[C@@H]5O)cc4)c(CSc4ccc(CC(=O)NCCOCCOCCOCCOCCC(=O)NCCO[C@@H]5O[C@@H](C)[C@@H](O)[C@@H](O)[C@@H]5O)cc4)c(CSc4ccc(CC(=O)NCCOCCOCCOCCOCCC(=O)NCCO[C@@H]5O[C@@H](C)[C@@H](O)[C@@H](O)[C@@H]5O)cc4)c(CSc4ccc(CC(=O)NCCOCCOCCOCCOCCC(=O)NCCO[C@@H]5O[C@@H](C)[C@@H](O)[C@@H](O)[C@@H]5O)cc4)c3CSc3ccc(CC(=O)NCCOCCOCCOCCOCCC(=O)NCCO[C@@H]4O[C@@H](C)[C@@H](O)[C@@H](O)[C@@H]4O)cc3)cc2)[C@@H](O)[C@H](O)[C@@H]1O [hexa-4]
[1]; 25 °C
  β affinity enhancement (Kd,mono/Kd,multi) BambL ITC: 455
  Kd: 4.7 ± 0.9 nM
[1]; 25 °C, ratio of compound per BambL trimer (six binding sites)
  N stoichiometry BambL ITC: 1.05
[1]; 25 °C, v = valency
  β/v affinity enhancement per single sugar BambL ITC: 76
[1]
  -TΔS (kJ/mol) BambL binding: 249 ± 10 kJ/mol
  ΔH (kJ/mol) BambL binding: -296 ± 9 kJ/mol
  N BambL binding (Table S3): 0.35 ± 0.01
[4]
  IC50: 43 ± 6 nM
[5]
  IC50: 148 ± 6 nM
[6]
  IC50: 31 ± 3 nM
[2]; 25 °C
  β affinity enhancement (Kd,mono/Kd,multi) FleA ITC: 849
  Kd: 115 ± 4 nM
  N stoichiometry FleA ITC: 0.8 ± 0.02 and 0.8
[2]; 25 °C, v = valency
  β/v affinity enhancement per single sugar FleA ITC: 142
[2]
  -TΔS (kJ/mol) FleA binding: 206 ± 6 kJ/mol
  ΔH (kJ/mol) FleA binding: -246 ± 6 kJ/mol
[7]; 25 °C
  β affinity enhancement (Kd,mono/Kd,multi) SapL1 ITC: 2735
  N stoichiometry SapL1 ITC: 0.72 ± 0.02 and 0.72
[7]; 25 °C, v = valency
  β/v affinity enhancement per single sugar SapL1 ITC: 456
[7]
  -TΔS (kJ/mol) SapL1 binding: 155 ± 12 kJ/mol
  ΔH (kJ/mol) SapL1 binding: -199 ± 13 kJ/mol
[7]; read-out: Kd (nM) SapL1 ITC, 25 °C, 20 mM Tris, 100 mM NaCl, pH 8.0
  Kd: 25 nM and 24.9 nM
[8]
  Kd: 1.2 ± 0.2 nM
[9]
  Kd: 4.1 ± 0.1 nM
[10]
  Kd: 1.6 ± 0.1 nM

## CO[C@@H]1O[C@@H](C)[C@@H](O)[C@@H](O)[C@@H]1O [α-Me-Fuc, α-methyl fucose, reference compound]
[5]
  IC50: 111000 nM
[6]
  IC50: 1400 ± 200 nM
[11]
  Kd: 1000 to 200000 nM
[12]; 0.1 mM, spores preincubated with compound, MOI 2, Figure S3
  anti-adhesive effect: ineffective
[12]; control experiment, preincubation
  concentration needed to elicit any measurable anti-adhesive properties: 1 mM
[7]; 25 °C
  N stoichiometry SapL1 ITC: 3.52 ± 0.13
[7]
  -TΔS (kJ/mol) SapL1 binding: 27 ± 2 kJ/mol
  ΔH (kJ/mol) SapL1 binding: -63 ± 11 kJ/mol

## CC(=O)N[C@H]1C(O)O[C@H](CO)[C@@H](O[C@@H]2O[C@@H](C)[C@@H](O)[C@@H](O)[C@@H]2O)[C@@H]1O (stereo partly shown) [αFuc(1–4)GlcNAc]
[3]
  Kd: 63000 nM
